Where no end group is shown, it is not given here.
Biological target: T1, binding of the integrin α4 β1 to VCAM (Homo sapiens, UniProt P05556+P13612)
T1 construct: endogenous in cells; host or cells: Ramos (human B-cell line) for endogenous α4β1; CHO cells stably transfected with human VCAM cDNA for the counter-receptor
Assay: Cell-cell assay: 35S-labelled Ramos cells binding to VCAM expressing CHO cells
Type: cell-based
Settings: single concentration at which SEQ ID NO:9 gives approximately 50% inhibition of adhesion; SEQ ID NO:9 = 1.00; >2.00 indicates little or no inhibition of VCAM-α4 β1 binding
Text: The VCAM-1 binding assays involved assessing the ability of cells that express α4 β1 to bind cells expressing VCAM (cell-cell assay) or to bind purified VCAM protein (cell-protein assay). The integrin-expressing cell types used in these assays included the human B-cell line, Ramos, and the human promyelocytic line, HL-60. The cell-cell assay was used to compare the relative potency of peptides at a single dose. The cell-protein assay was used to generate dose response curves and determine IC50 values. A human VCAM cDNA was amplified by the polymerase chain reaction (PCR) from cDNA reverse transcribed from RNA isolated from human umbilical vein endothelial cells. The VCAM cDNA was ligated into a mammalian expression vector and electroporated into chinese hamster ovary (CHO) cells. Cells were grown in G418 selective media and clones expressing high levels of VCAM were selected by FACS analysis. VCAM expressing CHO cells and nontransfected CHO cells were plated in 48 well cluster dishes at a density of 50,000 cells/well 24 hour prior to assay. The dishes were washed with binding buffer (DMEM, 1% BSA, 1.0 mM MnCl2, 0.02% sodium azide, pH 7.4) immediately prior to assay. […] Unbound cells were removed by washing with binding buffer and the remaining bound cells were lysed with 50 mM Tris, pH 8.0, 150 mM NaCl, 1% SDS and transferred to scintillation vials for quantitation.

T1 sequence (P13612 34-1032): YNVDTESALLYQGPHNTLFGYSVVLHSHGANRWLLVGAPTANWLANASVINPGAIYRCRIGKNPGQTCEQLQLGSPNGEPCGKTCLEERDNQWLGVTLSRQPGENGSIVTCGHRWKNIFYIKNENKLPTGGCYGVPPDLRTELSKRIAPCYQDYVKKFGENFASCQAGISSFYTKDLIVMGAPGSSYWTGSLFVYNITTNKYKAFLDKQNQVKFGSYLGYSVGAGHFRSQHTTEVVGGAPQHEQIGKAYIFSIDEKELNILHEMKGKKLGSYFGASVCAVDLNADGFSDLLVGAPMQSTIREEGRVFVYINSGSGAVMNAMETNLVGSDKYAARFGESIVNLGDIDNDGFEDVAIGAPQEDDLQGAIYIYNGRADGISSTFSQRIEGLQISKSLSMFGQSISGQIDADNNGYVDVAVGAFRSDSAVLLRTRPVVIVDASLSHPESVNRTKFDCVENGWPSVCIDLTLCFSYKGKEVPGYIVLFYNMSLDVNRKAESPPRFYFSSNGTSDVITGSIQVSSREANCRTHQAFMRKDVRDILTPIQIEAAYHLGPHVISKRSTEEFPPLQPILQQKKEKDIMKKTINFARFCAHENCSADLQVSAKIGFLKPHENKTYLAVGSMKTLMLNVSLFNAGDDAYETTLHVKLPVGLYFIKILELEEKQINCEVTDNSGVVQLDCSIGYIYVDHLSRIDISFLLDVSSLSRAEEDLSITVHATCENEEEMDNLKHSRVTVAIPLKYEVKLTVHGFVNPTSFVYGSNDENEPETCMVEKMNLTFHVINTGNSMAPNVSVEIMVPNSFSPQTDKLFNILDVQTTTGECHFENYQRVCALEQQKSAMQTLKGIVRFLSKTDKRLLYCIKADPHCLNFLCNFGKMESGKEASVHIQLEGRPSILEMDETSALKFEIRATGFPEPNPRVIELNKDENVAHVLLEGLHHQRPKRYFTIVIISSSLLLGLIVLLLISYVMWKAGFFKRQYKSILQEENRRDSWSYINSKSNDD
T1 sequence (P05556 21-798): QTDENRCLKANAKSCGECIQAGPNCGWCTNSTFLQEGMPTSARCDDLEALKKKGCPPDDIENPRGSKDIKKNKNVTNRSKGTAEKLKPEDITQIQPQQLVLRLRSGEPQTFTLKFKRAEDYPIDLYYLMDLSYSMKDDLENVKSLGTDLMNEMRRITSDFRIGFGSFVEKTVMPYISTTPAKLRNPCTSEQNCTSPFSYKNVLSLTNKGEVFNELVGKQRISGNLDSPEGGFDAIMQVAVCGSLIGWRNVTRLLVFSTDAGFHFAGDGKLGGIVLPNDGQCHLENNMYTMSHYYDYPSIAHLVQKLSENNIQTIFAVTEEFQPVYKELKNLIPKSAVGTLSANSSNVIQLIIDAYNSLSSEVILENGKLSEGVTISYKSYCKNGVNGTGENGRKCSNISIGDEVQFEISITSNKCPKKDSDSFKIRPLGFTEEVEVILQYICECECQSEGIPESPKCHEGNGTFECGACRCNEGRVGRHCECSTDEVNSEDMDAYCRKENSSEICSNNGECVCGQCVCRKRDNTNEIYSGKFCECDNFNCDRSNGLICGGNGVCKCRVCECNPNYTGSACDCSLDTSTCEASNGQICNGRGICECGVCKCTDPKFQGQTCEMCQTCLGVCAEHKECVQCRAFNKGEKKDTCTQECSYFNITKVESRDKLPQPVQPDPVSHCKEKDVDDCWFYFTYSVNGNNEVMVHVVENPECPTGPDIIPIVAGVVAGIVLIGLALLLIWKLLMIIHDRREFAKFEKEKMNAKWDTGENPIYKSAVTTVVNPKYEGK

## GPAWLDVP-NH2 [SEQ ID NO:9 E→A, Gly-Pro-Ala-Trp-Leu-Asp-Val-Pro-amide]
  relative quantity of adhered cells in relationship to peptide SEQ ID NO:9: 1.47

## GPCWLDVP-NH2 [SEQ ID NO:9 E→C, Gly-Pro-Cys-Trp-Leu-Asp-Val-Pro-amide]
  relative quantity of adhered cells in relationship to peptide SEQ ID NO:9: 1.49

## GPDWLDVP-NH2 [SEQ ID NO:9 E→D, Gly-Pro-Asp-Trp-Leu-Asp-Val-Pro-amide]
  relative quantity of adhered cells in relationship to peptide SEQ ID NO:9: 1.54

## GPEALDVP-NH2 [SEQ ID NO:9 W→A, Gly-Pro-Glu-Ala-Leu-Asp-Val-Pro-amide]
  relative quantity of adhered cells in relationship to peptide SEQ ID NO:9: 1.64

## GPECLDVP-NH2 [SEQ ID NO:9 W→C, Gly-Pro-Glu-Cys-Leu-Asp-Val-Pro-amide]
  relative quantity of adhered cells in relationship to peptide SEQ ID NO:9: 1.45

## GPEDLDVP-NH2 [SEQ ID NO:9 W→D, Gly-Pro-Glu-Asp-Leu-Asp-Val-Pro-amide]
  relative quantity of adhered cells in relationship to peptide SEQ ID NO:9: 1.62

## GPEWLCVP-NH2 [SEQ ID NO:9 D→C, Gly-Pro-Glu-Trp-Leu-Cys-Val-Pro-amide]
  relative quantity of adhered cells in relationship to peptide SEQ ID NO:9: 1.78

## GPEWLDDP-NH2 [SEQ ID NO:9 V→D, Gly-Pro-Glu-Trp-Leu-Asp-Asp-Pro-amide]
  relative quantity of adhered cells in relationship to peptide SEQ ID NO:9: 2.39

## GPEWLDEP-NH2 [SEQ ID NO:9 V→E, Gly-Pro-Glu-Trp-Leu-Asp-Glu-Pro-amide]
  relative quantity of adhered cells in relationship to peptide SEQ ID NO:9: 2.33

## GPEWLDFP-NH2 [SEQ ID NO:9 V→F, Gly-Pro-Glu-Trp-Leu-Asp-Phe-Pro-amide]
  relative quantity of adhered cells in relationship to peptide SEQ ID NO:9: 1.13

## GPEWLDGP-NH2 [SEQ ID NO:9 V→G]
  relative quantity of adhered cells in relationship to peptide SEQ ID NO:9: 1.67

## GPEWLDHP-NH2 [SEQ ID NO:9 V→H]
  relative quantity of adhered cells in relationship to peptide SEQ ID NO:9: 1.77

## GPEWLDIP-NH2 [SEQ ID NO:9 V→I]
  relative quantity of adhered cells in relationship to peptide SEQ ID NO:9: 1.81

## GPEWLDKP-NH2 [SEQ ID NO:9 V→K]
  relative quantity of adhered cells in relationship to peptide SEQ ID NO:9: 2.68

## GPEWLDLP-NH2 [SEQ ID NO:9 V→L]
  relative quantity of adhered cells in relationship to peptide SEQ ID NO:9: 1.54

## GPEWLDMP-NH2 [SEQ ID NO:9 V→M]
  relative quantity of adhered cells in relationship to peptide SEQ ID NO:9: 2.46

## GPEWLDNP-NH2 [SEQ ID NO:9 V→N]
  relative quantity of adhered cells in relationship to peptide SEQ ID NO:9: 2.31

## GPEWLDPP-NH2 [SEQ ID NO:9 V→P]
  relative quantity of adhered cells in relationship to peptide SEQ ID NO:9: 2.45

## GPEWLDQP-NH2 [SEQ ID NO:9 V→Q]
  relative quantity of adhered cells in relationship to peptide SEQ ID NO:9: 1.97

## GPEWLDRP-NH2 [SEQ ID NO:9 V→R]
  relative quantity of adhered cells in relationship to peptide SEQ ID NO:9: 1.52

## GPEWLDSP-NH2 [SEQ ID NO:9 V→S]
  relative quantity of adhered cells in relationship to peptide SEQ ID NO:9: 1.54

## GPEWLDWP-NH2 [SEQ ID NO:9 V→W, Gly-Pro-Glu-Trp-Leu-Asp-Trp-Pro-amide]
  relative quantity of adhered cells in relationship to peptide SEQ ID NO:9: 1.08

## GPEWLDYP-NH2 [SEQ ID NO:9 V→Y, Gly-Pro-Glu-Trp-Leu-Asp-Tyr-Pro-amide]
  relative quantity of adhered cells in relationship to peptide SEQ ID NO:9: 0.80

## GPEWLEVP-NH2 [SEQ ID NO:9 D→E, Gly-Pro-Glu-Trp-Leu-Glu-Val-Pro-amide]
  relative quantity of adhered cells in relationship to peptide SEQ ID NO:9: 1.77

## GPEWLFVP-NH2 [SEQ ID NO:9 D→F, Gly-Pro-GluoTrp-Leu-Phe-Val-Pro-amide]
  relative quantity of adhered cells in relationship to peptide SEQ ID NO:9: 1.94

## GPEWLHVP-NH2 [SEQ ID NO:9 D→H, Gly-Pro-Glu-Trp-Leu-His-Val-Pro-amide]
  relative quantity of adhered cells in relationship to peptide SEQ ID NO:9: 1.74

## GPEWLKVP-NH2 [SEQ ID NO:9 D→K, Gly-Pro-Glu-Trp-Leu-Lys-Val-Pro-amide]
  relative quantity of adhered cells in relationship to peptide SEQ ID NO:9: 1.74

## GPEWLMVP-NH2 [SEQ ID NO:9 D→M, Gly-Pro-Glu-Trp-Leu-Met-Val-Pro-amide]
  relative quantity of adhered cells in relationship to peptide SEQ ID NO:9: 1.76

## GPEWLPVP-NH2 [SEQ ID NO:9 D→P, Gly-Pro-Glu-Trp-Leu-Pro-Val-Pro-amide]
  relative quantity of adhered cells in relationship to peptide SEQ ID NO:9: 2.19

## GPEWLQVP-NH2 [SEQ ID NO:9 D→Q, Gly-Pro-Glu-Trp-Leu-Gln-Val-Pro-amide]
  relative quantity of adhered cells in relationship to peptide SEQ ID NO:9: 2.35

## GPEWLRVP-NH2 [SEQ ID NO:9 D→R, Gly-Pro-Glu-Trp-Leu-Arg-Val-Pro-amide]
  relative quantity of adhered cells in relationship to peptide SEQ ID NO:9: 2.14

## GPFWLDVP-NH2 [SEQ ID NO:9 E→F, Gly-Pro-Phe-Trp-Leu-Asp-Val-Pro-amide]
  relative quantity of adhered cells in relationship to peptide SEQ ID NO:9: 1.64

## GPGWLDVP-NH2 [SEQ ID NO:9 E→G, Gly-Pro-Gly-Trp-Leu-Asp-Val-Pro-amide]
  relative quantity of adhered cells in relationship to peptide SEQ ID NO:9: 1.33

## GPHWLDVP-NH2 [SEQ ID NO:9 E→H, Gly-Pro-His-Trp-Leu-Asp-Val-Pro-amide]
  relative quantity of adhered cells in relationship to peptide SEQ ID NO:9: 1.23

## GPIWLDVP-NH2 [SEQ ID NO:9 E→I, Gly-Pro-Ile-Trp-Leu-Asp-Val-Pro-amide]
  relative quantity of adhered cells in relationship to peptide SEQ ID NO:9: 1.44

## GPKWLDVP-NH2 [SEQ ID NO:9 E→K, Gly-Pro-Lys-Trp-Leu-Asp-Val-Pro-amide]
  relative quantity of adhered cells in relationship to peptide SEQ ID NO:9: 1.34

## GPLWLDVP-NH2 [SEQ ID NO:9 E→L, Gly-Pro-Leu-Trp-Leu-Asp-Val-Pro-amide]
  relative quantity of adhered cells in relationship to peptide SEQ ID NO:9: 1.62

## GPMWLDVP-NH2 [SEQ ID NO:9 E→M, Gly-Pro-Met-Trp-Leu-Asp-Val-Pro-amide]
  relative quantity of adhered cells in relationship to peptide SEQ ID NO:9: 1.42

## GPNWLDVP-NH2 [SEQ ID NO:9 E→N, Gly-Pro-Asn-Trp-Leu-Asp-Val-Pro-amide]
  relative quantity of adhered cells in relationship to peptide SEQ ID NO:9: 0.94

## GPPWLDVP-NH2 [SEQ ID NO:9 E→P, Gly-Pro-Pro-Trp-Leu-Asp-Val-Pro-amide]
  relative quantity of adhered cells in relationship to peptide SEQ ID NO:9: 0.98

## GPQWLDVP-NH2 [SEQ ID NO:9 E→Q, Gly-ProoGln-Trp-Leu-Asp-Val-Pro-amide]
  relative quantity of adhered cells in relationship to peptide SEQ ID NO:9: 0.93

## GPRWLDVP-NH2 [SEQ ID NO:9 E→R, Gly-Pro-Arg-Trp-Leu-Asp-Val-Pro-amide]
  relative quantity of adhered cells in relationship to peptide SEQ ID NO:9: 1.52

## GPSWLDVP-NH2 [SEQ ID NO:9 E→S, Gly-Pro-Ser-Trp-Leu-Asp-Val-Pro-amide]
  relative quantity of adhered cells in relationship to peptide SEQ ID NO:9: 0.85

## GPTWLDVP-NH2 [SEQ ID NO:9 E→T, Gly-Pro-Thr-Trp-Leu-Asp-Val-Pro-amide]
  relative quantity of adhered cells in relationship to peptide SEQ ID NO:9: 0.98

## GPVWLDVP-NH2 [SEQ ID NO:9 E→V, Gly-Pro-Val-Trp-Leu-Asp-Val-Pro-amide]
  relative quantity of adhered cells in relationship to peptide SEQ ID NO:9: 1.04

## GPWWLDVP-NH2 [SEQ ID NO:9 E→W, Gly-Pro-Trp-Trp-Leu-Asp-Val-Pro-amide]
  relative quantity of adhered cells in relationship to peptide SEQ ID NO:9: 1.17

## GPYWLDVP-NH2 [SEQ ID NO:9 E→Y, Gly-Pro-Tyr-Trp-Leu-Asp-Val-Pro-amide]
  relative quantity of adhered cells in relationship to peptide SEQ ID NO:9: 0.96
